Assay results taken from patent US12146004B2, “Polymyxin compounds and uses thereof” (priority 2014, dated 2024).
Values after ≈ are worked out from the molar mass of the structure shown. Like-named read-outs stand apart in the source and are kept apart here. Bridge positions count the residues as written; N and C are the ends. Square brackets hold non-standard residues; d marks the D form. Peptide text beside a SMILES is read from it. * marks the point of attachment. X16 = Cc1cc(C)cc(CO[C@@H](CCN)C(=O)*)c1; X27 = NCCC(C(=O)*)c1cccc(Cl)c1; dCha = N[C@H](CC1CCCCC1)C(=O)O; X15 = NCCC(CC1CCCC1)C(=O)*; Dab = NCC[C@H](N)C(=O)O; Dap = NC[C@H](N)C(=O)O

Assays:
Assay type in all cases: cell-based
Acinetobacter baumannii = test system: Acinetobacter baumannii
In short: (§1)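 Each compound was tested against a panel of up to nine strains per Gram-negative species. The panel included strains that show elevated MICs to Polymyxin. Activity was recorded as MIC in μg/mL.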

Escherichia coli = test system: Escherichia coli
In short: as §1

Klebsiella pneumoniae = test system: Klebsiella pneumoniae
In short: as §1

Pseudomonas aeruginosa = test system: Pseudomonas aeruginosa
In short: as §1

MIC A. baumanii 053 (Acinetobacter baumannii) | MIC A. baumanii 056 (Acinetobacter baumannii) | MIC A. baumanii ATCC BAA-747 (Acinetobacter baumannii) | MIC A. baumanii NCTC 13424 (Acinetobacter baumannii) | MIC E. coli 058 (Escherichia coli) | MIC E. coli 061 (Escherichia coli) | MIC E. coli ATCC 25922 (Escherichia coli) | MIC E. coli NCTC 9001 (Escherichia coli) | MIC K. pneumoniae 063 (Klebsiella pneumoniae) | MIC K. pneumoniae 065 (Klebsiella pneumoniae) | MIC K. pneumoniae ATCC 13882 (Klebsiella pneumoniae) | MIC P. aeruginosa 068 (Pseudomonas aeruginosa) | MIC P. aeruginosa 070 (Pseudomonas aeruginosa) | MIC P. aeruginosa ATCC 27853 (Pseudomonas aeruginosa) | MIC P. aeruginosa CCUG 59347 (Pseudomonas aeruginosa) | SMILES | further results
>64 µg/mL | 64 µg/mL (≈ 56.3 µM) | 0.125 µg/mL (≈ 0.11 µM) | 0.06 µg/mL (≈ 0.0528 µM) | 4 µg/mL (≈ 3.52 µM) | 16 µg/mL (≈ 14.1 µM) | 0.5 µg/mL (≈ 0.44 µM) | 0.06 µg/mL (≈ 0.0528 µM) | 16 µg/mL (≈ 14.1 µM) | 1 µg/mL (≈ 0.88 µM) | 0.25 µg/mL (≈ 0.22 µM) | 2 µg/mL (≈ 1.76 µM) | 8 µg/mL (≈ 7.04 µM) | 0.25 µg/mL (≈ 0.22 µM) | 0.25 µg/mL (≈ 0.22 µM) | CC(C)C[C@@H]1NC(=O)[C@@H](CC2CCCCC2)NC(=O)[C@H](CCN)NC(=O)[C@@H](NC(=O)[C@H](CCN)NC(=O)[C@@H](NC(=O)C(CCN)CC2CCCC2)[C@@H](C)O)CCNC(=O)[C@H]([C@@H](C)O)NC(=O)[C@H](CCN)NC(=O)[C@H](CCN)NC1=O (stereo partly drawn) [Example 83, 4-amino-2-(cyclopentylmethyl) butanoyl polymyxin [D-cyclohexylalanine-6]nonapeptide] (X15-T[Dab][Dab][Dab][dCha]L[Dab][Dab]T; lactam 3-C) | 
>64 µg/mL | 64 µg/mL (≈ 57 µM) | 0.125 µg/mL (≈ 0.111 µM) | 0.125 µg/mL (≈ 0.111 µM) | 2 µg/mL (≈ 1.78 µM) | 16 µg/mL (≈ 14.3 µM) | 0.125 µg/mL (≈ 0.111 µM) |  | 16 µg/mL (≈ 14.3 µM) | 1 µg/mL (≈ 0.891 µM) | 0.125 µg/mL (≈ 0.111 µM) | 2 µg/mL (≈ 1.78 µM) | 2 µg/mL (≈ 1.78 µM) | 0.25 µg/mL (≈ 0.223 µM) | 0.25 µg/mL (≈ 0.223 µM) | CC(C)C[C@@H]1NC(=O)[C@@H](CC2CCCCC2)NC(=O)[C@H](CCN)NC(=O)[C@@H](NC(=O)[C@H](CN)NC(=O)[C@@H](NC(=O)C(CCN)CC2CCCC2)[C@@H](C)O)CCNC(=O)[C@H]([C@@H](C)O)NC(=O)[C@H](CCN)NC(=O)[C@H](CCN)NC1=O (stereo partly drawn) [Example 75, 4-amino-2-(cyclopentylmethyl) butanoyl L-Thr-L-Dap-polymyxin [D-cyclohexylalanine]-6 heptapeptide.] (X15-T[Dap][Dab][Dab][dCha]L[Dab][Dab]T; lactam 3-C) | 
 |  | 0.25 µg/mL (≈ 0.217 µM) | 0.25 µg/mL (≈ 0.217 µM) | 2 µg/mL (≈ 1.74 µM) |  | 0.5 µg/mL (≈ 0.434 µM) |  |  | 2 µg/mL (≈ 1.74 µM) | 0.5 µg/mL (≈ 0.434 µM) |  |  | 0.5 µg/mL (≈ 0.434 µM) | 0.5 µg/mL (≈ 0.434 µM) | CC(C)C[C@@H]1NC(=O)[C@@H](CC2CCCCC2)NC(=O)[C@H](CCN)NC(=O)[C@@H](NC(=O)[C@H](CN)NC(=O)[C@@H](NC(=O)C(CCN)c2cccc(Cl)c2)[C@@H](C)O)CCNC(=O)[C@H]([C@@H](C)O)NC(=O)[C@H](CCN)NC(=O)[C@H](CCN)NC1=O (stereo partly drawn) [Example 79, 4-Amino-2-(3-chlorophenyl) butanoyl L-Thr-L-Dap-polymyxin [D-cyclohexylalanine]-6 heptapeptide.] (X27-T[Dap][Dab][Dab][dCha]L[Dab][Dab]T; lactam 3-C) | 

The next lines start with the molecule.

SMILES | MIC A. baumanii 053 (Acinetobacter baumannii) | MIC A. baumanii 056 (Acinetobacter baumannii) | MIC A. baumanii ATCC BAA-747 (Acinetobacter baumannii) | MIC A. baumanii NCTC 13424 (Acinetobacter baumannii) | MIC E. coli 058 (Escherichia coli) | MIC E. coli 061 (Escherichia coli) | MIC E. coli ATCC 25922 (Escherichia coli) | MIC E. coli NCTC 9001 (Escherichia coli) | MIC K. pneumoniae 063 (Klebsiella pneumoniae) | MIC K. pneumoniae 065 (Klebsiella pneumoniae) | MIC K. pneumoniae ATCC 13882 (Klebsiella pneumoniae) | MIC P. aeruginosa 068 (Pseudomonas aeruginosa) | MIC P. aeruginosa 070 (Pseudomonas aeruginosa) | MIC P. aeruginosa ATCC 27853 (Pseudomonas aeruginosa) | MIC P. aeruginosa CCUG 59347 (Pseudomonas aeruginosa) | further results
CC(C)C[C@@H]1NC(=O)[C@@H](CC2CCCCC2)NC(=O)[C@H](CCN)NC(=O)[C@@H](NC(=O)[C@H](CCN)NC(=O)[C@@H](NC(=O)CC(CN)c2ccccc2)[C@@H](C)O)CCNC(=O)[C@H]([C@@H](C)O)NC(=O)[C@H](CCN)NC(=O)[C@H](CCN)NC1=O (single isomer, unassigned; isomer 1) [Example 56, 4-amino-3-phenylbutanoyl polymyxin [D-cyclohexylalanine]-6 nonapeptide isomer 1] |  |  |  |  |  |  |  |  |  |  |  |  |  |  |  | MIC A. baumanii ATCC BAA-747 (Acinetobacter baumannii; strain ATCC BAA-747): 0.125 µg/mL (≈ 0.111 µM); MIC A. baumanii NCTC 13424 (Acinetobacter baumannii; strain NCTC 13424): 0.125 µg/mL (≈ 0.111 µM); MIC E. coli 058 (Escherichia coli; strain 058): 16 µg/mL (≈ 14.2 µM); MIC E. coli ATCC 25922 (Escherichia coli; strain ATCC 25922): 0.25 µg/mL (≈ 0.221 µM); MIC K. pneumoniae 065 (Klebsiella pneumoniae; strain 065): 16 µg/mL (≈ 14.2 µM); MIC K. pneumoniae ATCC 13882 (Klebsiella pneumoniae; strain ATCC 13882): 0.25 µg/mL (≈ 0.221 µM); MIC P. aeruginosa ATCC 27853 (Pseudomonas aeruginosa; strain ATCC 27853): 0.25 µg/mL (≈ 0.221 µM); MIC P. aeruginosa CCUG 59347 (Pseudomonas aeruginosa; strain CCUG 59347): 0.5 µg/mL (≈ 0.442 µM)
Cc1cc(C)cc(CO[C@@H](CCN)C(=O)N[C@H](C(=O)N[C@@H](CN)C(=O)N[C@H]2CCNC(=O)[C@H]([C@@H](C)O)NC(=O)[C@H](CCN)NC(=O)[C@H](CCN)NC(=O)[C@H](CC(C)C)NC(=O)[C@@H](CC3CCCCC3)NC(=O)[C@H](CCN)NC2=O)[C@@H](C)O)c1 [Example 90, (S)-4-amino-2-((3,5-dimethylbenzyl)oxy)butanoyl L-Thr-L-Dap-polymyxin [D-cyclohexylalanine-6]heptapeptide] (X16-T[Dap][Dab][Dab][dCha]L[Dab][Dab]T; lactam 3-C) | >64 µg/mL | 32 µg/mL (≈ 27.2 µM) | 0.125 µg/mL (≈ 0.106 µM) | 0.06 µg/mL (≈ 0.0511 µM) | 2 µg/mL (≈ 1.7 µM) | 16 µg/mL (≈ 13.6 µM) | 0.125 µg/mL (≈ 0.106 µM) | 0.125 µg/mL (≈ 0.106 µM) | 64 µg/mL (≈ 54.5 µM) | 4 µg/mL (≈ 3.41 µM) | 0.25 µg/mL (≈ 0.213 µM) | 4 µg/mL (≈ 3.41 µM) | 16 µg/mL (≈ 13.6 µM) | 0.125 µg/mL (≈ 0.106 µM) | 0.25 µg/mL (≈ 0.213 µM) | 
